The test system of assay [1] is SKOV3 or Panc3.27 tumor cells. The assay is described as follows: In vitro combination study, fixed concentration of IAP inhibitor with varied combination agent. The format is cell-based. Conditions: each agent alone. The procedure: (§1) On day one adherent SKOV3 and Panc3.27 cells are plated into two 96-well, clear, flat bottom plates. All wells in row A contain 90 uL of media. All wells in rows B-G contain a total volume of 90 uL per well and 2000 cells per well for SKOV3 and 4000 cells per well for Panc3.27 cell lines. Plates are then incubated overnight for 18 hours at 37° C., 5% CO2.
On day two cells are treated with the compounds of formula M-L-M′. Treatments are done in triplicate. The compounds are first serially diluted in DMSO and then added to media giving a final concentration of 0.2% DMSO when added to cells. […]
To measure cell viability 50 uL of Cell Titer Glo (CTG) solution is added to row A, media only and B, cells and media. […] After incubating for ten minutes with CTG plates are measured on a luminescent reader at 700 nm wavelength. Read time is approximately one second per well for a 96-well plate.
On day five 50 uL of CTG is added to plate one, rows A-G, incubated for 10 minutes at room temperature and read on a luminescent reader. […] Triplicate values are averaged and percent control growth is calculated. Percent control growth is calculated using the following logical test: If well read data point (a) is greater than time zero data point (t=0), then 100*[(a)−(t=0)]/[(72 hour total growth)−(t=0)], OR 100*[(a)−(t=0)]/[(t=0)]. […]

Another assay relates to Panc3.27 tumor cells. The assay is described as follows: Cellular assay, Panc3.27 tumor cell proliferation (Cell Titer Glo). Type of assay: cell-based. The following applies: citrate salt form tested, Panc3.27 cells, 72 hour growth, read-out: PANC proliferation IC50. How it is done:
(§2) The compounds described herein above were profiled using a cellular assay (using SKOV3 or Panc3.27 tumor cells) and a binding assay to determine the competition between the compounds of the present invention and smac7 mer peptide for XIAP-BIR3 and cIAP1-BIR3 binding groove occupancy.
as §1
(§3) On day two cells are treated with the compounds of formula M-L-M′. Treatments are done in triplicate. The compounds are first serially diluted in DMSO and then added to media giving a final concentration of 0.2% DMSO when added to cells. Cells are treated with 10 uL of serially diluted compounds of formula M-L-M′ at a final concentration of 1000 nM, 200 nM, 40 nM, 8 nM, 1.6 nM, 0.32 nM, 0.06 nM, 0.013 nM, 0.0026 nM, and one untreated well. Plate two is used as a time zero plate.
(§4) To measure cell viability 50 uL of Cell Titer Glo (CTG) solution is added to row A, media only and B, cells and media. CTG is purchased from Promega Corporation catalog number G7573. The solution is prepared according to manufacturer's instructions. CTG measures the amount of ATP released from viable cells that is proportional to the number of cells in each well. After incubating for ten minutes with CTG plates are measured on a luminescent reader at 700 nm wavelength. Read time is approximately one second per well for a 96-well plate.
(§5) On day five 50 uL of CTG is added to plate one, rows A-G, incubated for 10 minutes at room temperature and read on a luminescent reader. Raw data is adjusted to account for the time zero plate as well as background noise. Triplicate values are averaged and percent control growth is calculated. Percent control growth is calculated using the following logical test: If well read data point (a) is greater than time zero data point (t=0), then 100*[(a)−(t=0)]/[(72 hour total growth)−(t=0)], OR 100*[(a)−(t=0)]/[(t=0)]. Data is represented by line graph with the concentration of compound on the x axis and percent control growth on the y axis.
(In general: ATP-based viability assays read luminescence as a measure of living cells.)

A further assay relates to SKOV3 tumor cells. As to the kind of experiment: Cellular assay, SKOV3 tumor cell proliferation (Cell Titer Glo). Conditions: Homo sapiens, SK-OV-3, citrate salt form tested, 72 hour growth. The format is cell-based. How it is done: as §2, §1, §3, §4, §5
For the next assay, the target named is XIAP-BIR3 (Homo sapiens, UniProt P98170). The assay is described as follows: Biacore SPR solution competition binding assay vs smac7 mer peptide, XIAP-BIR3. The following applies: citrate salt form tested; 100 nM XIAP-BIR3; 25° C.; read-out: XIAP-BIR3 Binding Biacore (Competitive) EC50.
XIAP-BIR3, sequence (P98170 241-356 limits assumed): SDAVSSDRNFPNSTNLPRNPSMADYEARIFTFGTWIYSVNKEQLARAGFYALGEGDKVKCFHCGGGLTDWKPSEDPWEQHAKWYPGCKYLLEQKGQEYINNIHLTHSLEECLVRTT
Text: as §2
(§6) The present method includes utility of a Surface plasmon resonance (SPR)-based biosensor (Biacore™ GE Healthcare, Uppsala, Sweden) to examine competition between the compounds of the present invention and smac7 mer peptide for XIAP-BIR3 and cIAP1-BIR3 binding groove occupancy.
(§7) Biacore™ utilizes the phenomenon of surface plasmon resonance (SPR) to detect and measure binding interactions. In a typical Biacore experiment, one of the interacting molecules is immobilized on a flexible dextran matrix while the interacting partner is flowed over the derivatized surface. A binding interaction results in an increase in mass on the sensor surface and a corresponding direct change in the refractive index of the medium in the vicinity of the sensor surface. Changes in refractive index or signal are recorded in resonance units (R.U.) Signal changes due to association and dissociation of complexes are monitored in a non-invasive manner, continuously and in real-time, the results of which are reported in the form of a sensorgram.
(§8) Biacore™ T100 (GE Healthcare, Uppsala, Sweden) was used to conduct all experiments reported herein. Sensor surface preparation and interaction analyses were performed at 25° C. Buffer and Biacore reagents were purchased from GE Healthcare. Running buffer containing 10 mM Hepes, pH7.4, 150 mM sodium chloride, 1.25 mM Dithiothreitol, 2% Dimethyl sulfoxide and 0.05% polysorbate 20 was utilized throughout all experiments.
(§9) Biotinylated smac7 mer peptide was diluted to 10 nM in running buffer and captured onto a sensor surface pre-derivatized with streptavidin (sensor chip SA) towards peptide surface densities in the range 40-100 R.U. Peptide captured surfaces were blocked with 500 μM PEO2-Biotin (Thermo Scientific).
(§10) Interaction analyses were performed by first equilibrating each compound within a six point seven fold compound dilution series in the range 1 μM to 0.06 nM with either 100 nM XIAP-BIR3 or 6 nM cIAP1-BIR3 for at least one hour during instrument start-up procedures. Protein compound mixtures were then injected over reference and smac7 mer peptide surfaces in series for 60 seconds at a flow-rate of 64 μL/minutes. Surface regeneration was performed at the end of each analysis cycle by a 30 second injection of 10 mM Glycine, pH 2.5, 1M Sodium Chloride, 0.05% polysorbate 20. Additionally, control compound samples and control XIAP-BIR3 or cIAP1-BIR3 samples were prepared and run at regular intervals to monitor surface and assay performance.
(§11) Data analyses were carried out using Biacore™ T100 evaluation software v2.0 to validate assay quality. Binding level report points were plotted versus logarithmic compound concentration values and analyzed in Graphpad prism 5 via non-linear regression using a one-site competition model. EC50 values were generated and used as a measure of inhibitor potency.
(In general: SPR reads the build-up and loss of mass on a sensor chip optically.)

In a further assay the target is cIAP1-BIR3 (Homo sapiens, UniProt Q13490). The assay is described as follows: Biacore SPR solution competition binding assay vs smac7 mer peptide, cIAP1-BIR3. The following applies: citrate salt form tested; 6 nM cIAP1-BIR3; 25° C.; read-out: CIAP-BIR3 Binding Biacore (Competitive) EC50.
cIAP1-BIR3, sequence (Q13490 260-352 limits assumed): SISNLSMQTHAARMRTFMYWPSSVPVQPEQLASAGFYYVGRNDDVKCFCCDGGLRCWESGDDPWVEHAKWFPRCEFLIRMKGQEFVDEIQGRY
Text: as §2, §6, §7, §8, §9, §10, §11

SMILES strings stand for the structures. Where only a bound is given, the exact number is not on record here.

For the compound `CC(=O)O[C@H]1C(=O)[C@@]2(C)[C@H]([C@H](OC(=O)c3ccccc3)[C@]3(O)C[C@H](OC(=O)[C@H](O)[C@@H](NC(=O)c4ccccc4)c4ccccc4)C(C)=C1C3(C)C)[C@]1(OC(C)=O)CO[C@@H]1C[C@@H]2O` [Paclitaxel, paclitaxel, reference compound], the “single agent activity in the in vitro combination study” value in assay [1] was “neither Example 1J nor paclitaxel alone showed significant activity”.

The EC50 is the concentration giving half of the maximal effect. `CN[C@@H](C)C(=O)N[C@@H](CCCCNC(=O)c1ccc(-c2ccc(C(=O)NCCCC[C@H](NC(=O)[C@H](C)NC)C(=O)N3CCC[C@H]3c3cncc(C(=O)c4ccc(F)cc4)c3)cc2)cc1)C(=O)N1CCC[C@H]1c1cncc(C(=O)c2ccc(F)cc2)c1` [Example 1J, Biphenyl-4,4′-dicarboxylic acid bis-{[(S)-6-{(S)-2-[5-(4-fluorobenzoyl)-pyridin-3-yl]-pyrrolidin-1-yl}-5-((S)-2-methylamino-propionylamino)-6-oxo-hexyl]-amide}]: the IC50 in the assay with Panc3.27 tumor cells is 0.0026 to 6.67 nM; with SKOV3 tumor cells it was 0.026 to 5.94 nM. For the same compound, the EC50 on XIAP-BIR3 lay within 60.4 to 162 nM; at cIAP1-BIR3, 0.58 to 3.12 nM. In assay [1], the “single agent activity in the in vitro combination study” value is listed as “neither Example 1J nor paclitaxel alone showed significant activity”.

On to `CN[C@@H](C)C(=O)N[C@@H](Cc1ccc(NC(=O)CCCCCCCCC(=O)Nc2ccc(C[C@H](NC(=O)[C@H](C)NC)C(=O)N3CCC[C@H]3c3cncc(C(=O)c4ccc(F)cc4)c3)cc2)cc1)C(=O)N1CCC[C@H]1c1cncc(C(=O)c2ccc(F)cc2)c1` [Example 2B, Decanedioic acid bis-({4-[(S)-3-{(S)-2-[5-(4-fluoro-benzoyl)-pyridinyl-3-yl]-pyrrolidin-1-yl}-2-((S)-2-methylamino-propionylamino)-3-oxo-propyl]-phenyl}-amide)], for which the IC50 was 11.7 to 25.9 nM with Panc3.27 tumor cells and 7.39 to 15.4 nM in the assay on SKOV3 tumor cells. The EC50 on XIAP-BIR3 is 131 to 194 nM; at cIAP1-BIR3 it was 0.37 to 0.41 nM.

With `CN[C@@H](C)C(=O)N[C@@H](CCCCNS(=O)(=O)c1ccc2ccc(S(=O)(=O)NCCCC[C@H](NC(=O)[C@H](C)NC)C(=O)N3CCC[C@H]3c3cncc(C(=O)c4ccc(F)cc4)c3)cc2c1)C(=O)N1CCC[C@H]1c1cncc(C(=O)c2ccc(F)cc2)c1` [Example 1H, (S)-N-((S)-1-((S)-2-(5-(4-fluorobenzoyl)pyridin-3-yl)pyrrolidin-1-yl)-6-(7-(N-((S)-6-((S)-2-(5-(4-fluorobenzoyl)pyridin-3-yl)pyrrolidin-1-yl)-5-((S)-2-(methylamino)propanamido)-6-oxohexyl)sulfamoyl)naphthalene-2-sulfonamido)-1-oxohexan-2-yl)-2-(methylamino)propanamide], the IC50 in the assay with Panc3.27 tumor cells was 13.3 to 140 nM; in the assay on SKOV3 tumor cells it was 80.8 to 86.4 nM. Moreover, the EC50 was 46.3 to 53.5 nM at XIAP-BIR3 and 0.88 nM on cIAP1-BIR3.

In the case of `O=C(NCCCC[C@H](NC(=O)[C@@H]1CCN1)C(=O)N1CCC[C@H]1c1cncc(C(=O)c2ccc(F)cc2)c1)c1ccc(-c2ccc(C(=O)NCCCC[C@H](NC(=O)[C@@H]3CCN3)C(=O)N3CCC[C@H]3c3cncc(C(=O)c4ccc(F)cc4)c3)cc2)cc1` [Example 1K, Biphenyl-4,4′-dicarboxylic acid bis-[((S)-5-[((S)-azetidine-2-carbonyl)-amino]-6-{(S)-2-[5-(4-fluoro-benzoyl)-pyridin-3-yl]-pyrrolidin-1-yl}-6-oxo-hexyl)-amide]], the IC50 was above 10000 nM with Panc3.27 tumor cells and 9420 to 9460 nM in the assay on SKOV3 tumor cells. Further, the values for the EC50 on XIAP-BIR3 and at cIAP1-BIR3 were 636 to 704 nM and 18.4 to 19.4 nM, respectively.

With `CN[C@@H](C)C(=O)N[C@@H](CCCCNS(=O)(=O)c1ccc(-c2ccc(S(=O)(=O)NCCCC[C@H](NC(=O)[C@H](C)NC)C(=O)N3CCC[C@H]3c3cncc(C(=O)c4ccc(F)cc4)c3)cc2)cc1)C(=O)N1CCC[C@H]1c1cncc(C(=O)c2ccc(F)cc2)c1` [Example 1D, (S)-N-((S)-1-((S)-2-(5-(4-fluorobenzoyl)pyridin-3-yl)pyrrolidin-1-yl)-6-(4′-(N-((S)-6-((S)-2-(5-(4-fluorobenzoyl)pyridin-3-yl)pyrrolidin-1-yl)-5-((S)-2-(methylamino)propanamido)-6-oxohexyl)sulfamoyl)biphenyl-4-ylsulfonamido)-1-oxohexan-2-yl)-2-(methylamino)propanamide], the figures for the IC50 in the assay on Panc3.27 tumor cells and in the assay on SKOV3 tumor cells were 12.3 to 119 nM and 37.4 to 84.2 nM, respectively. The 50% effective concentration (EC50) was in the range of 88.5 to 129 nM at XIAP-BIR3 and 0.31 to 0.34 nM on cIAP1-BIR3.

The record behind these values is patent publication US8445440B2, “Dimeric IAP inhibitors” (Novartis AG, priority 2010, dated 2013).
